From patent US12391672B2, “Solid forms comprising (S)-4-(4-(4-(((2-(2,6-dioxopiperidin-3-yl)-1-oxoisoindolin-4-yl)oxy)methyl)benzyl)piperazin-1-yl)-3-fluorobenzonitrile and salts thereof, and compositions comprising and methods of using the same” (Celgene Corporation, priority 2019, dated 2025)
Values after ≈ are worked out from the molar mass of the structure shown. Values joined by “and” are separate entries in the source; they are usually repeats but may differ in a detail not shown here. Equal entries are not always repeated. Blank lines part the entries; values can stand above or below the molecule they belong to.

Legend:
Type in all cases: physicochemical
[1] = Solubility of polymorphic forms in physiologically relevant media and final pH
Excerpt: Solubility data of the several polymorphic forms of Compound 1 in physiologically relevant media and the final pH of these solutions are summarized in the following tables.

[2] = Solid state stability under accelerated storage conditions
Procedure: Form A was not isolated directly as a wet cake but formed only upon drying of Form E in polymorphism studies. […] Small quantities of Form A were generated by dissolving a crude Compound 1 in MEK at high temperature, followed by fast cooling to room temperature, filtration and drying. DSC and TGA data were obtained for samples of Form A and following storage for 1 week at 60° C. and 60° C./75% RH. […] TGA analysis confirmed that this broad endotherm was most likely due to moisture uptake under the accelerated storage conditions. Most of the weight loss of 0.82% in this sample occurred in a single step at less than 75° C. By contrast, weigh loss was a two-step process at the initial time point. […] The residual solvent initially present in the sample was lost upon storage of the sample at 60° C. (0.13% weight loss between 25 to 150° C.).
Form B could be obtained from a process involving methyl acetate. […] HPLC traces were taken of the samples of Form B and following storage for 2 week at 60° C. and 60° C./75% RH. […] Several small degradation products were seen to grow especially in the sample stored at 60° C. Chiral instability was also observed in the sample stored at 60° C./75% RH.
Physical stability: Visually, all samples of Form K were white colored powder with no apparent change in color in the samples stored under accelerated conditions (40° C., 40° C./75% RH, 60° C., 60° C./75% RH and sample stored in light chamber in clear vials exposed to light and covered in aluminum foil) for 14 d relative to the sample stored refrigerated and under ambient conditions.
Solid state chemical stability: HPLC analysis were performed on Form K samples stored under the accelerated stability conditions. […] Based on the HPLC analysis data, there is a measurable but small change in the chemical stability of Form K under the accelerated conditions of temperature, humidity and exposure to light over the 14 d period.
Solid state chiral stability: Chiral stability of Form K samples stored under accelerated stability conditions was tested. There was ˜2.9% of the R-enantiomer (97.1 area % of the active S-isomer) in the initial sample. […]
The chiral purity (area % of S-isomer) remained […] under the accelerated stability conditions.

[3] = Dynamic vapor sorption / hygroscopicity; details: for hygroscopicity: DVS, class by mass gain at 85% r.h.; for solid form after DVS cycle: after the DVS humidity cycle
Procedure: Projekt Messtechnik (now ProUmid) SPS11-100n. The sample was placed on an aluminum holder on top of a microbalance and allowed to equilibrate at 50% r.h. before starting one of the following pre-defined humidity programs (1 cycle): • hold 2 h at 50% r.h., • decrease humidity −5% r.h. h^−1 for 10 h (i.e., from 50% r.h. to 0% r.h.), • hold 5 h at […]., • increase humidity +5% r.h. h^−1 for 19 h (i.e., from 0% r.h. to 95% r.h.), • hold 5 h at 95% r.h., • decrease humidity −5% r.h. h^−1 for 9 h (i.e., from 95% r.h. to 50% r.h.), • hold 2 h at 50% r.h. or • hold 2 h at 50% r.h., • increase humidity +5% r.h. h^−1 for 9 h (i.e., from 50% r.h. to 95% r.h.), • hold 5 h at 95% r.h., • decrease humidity −5% r.h. h^−1 for 19 h (i.e., from 95% r.h. to 0% r.h.), • hold 5 h at 0% r.h., • increase humidity +5% r.h. h^−1 for 10 h (i.e., from 0% r.h. to 50% r.h.), • hold 2 h at 50% r.h.
The hygroscopicity was classified based on the mass gain at 85% r.h. relative to the initial mass as follows: deliquescent (sufficient water adsorbed to form a liquid), very hygroscopic (mass increase of […]), hygroscopic (mass increase of <15% but ≥2%), slightly hygroscopic (mass increase of <2% but ≥0.2%), or non-hygroscopic (mass increase of <0.2%).

[4] = Competitive slurry and slurry stability experiments; details: water, prolonged stirring
Procedure: Form B was obtained at room temperature while form C was obtained at 45° C. in acetone alone.
The HBr salt was largely insoluble in various buffers when 1 mg/mL slurries were prepared and the mother liquor concentration determined (by HPLC): <0.05 mg/mL in all buffers tested.

[5] = Solubility determination (15 minutes at room temperature, HPLC)
Procedure: 1 mL of buffer or of ultrapure (resistivity≥18.2 Mf cm) water was added to a pre-weighed, approximately twenty milligram aliquot of the substance to be measured. The resulting suspensions were stirred for 15 minutes at room temperature with magnetic stirrers. The suspensions were centrifuged and filtered through Millipore 0.2 μm PVDF filters, and the concentration of each filtrate (i.e., saturated solution) was determined using a general HPLC method. The pH of each saturated solution was measured with a Metrohm 713 pH meter.
To assess whether Form K and Form K′ are likely to have different bioavailabilities, comparative solubility measurements were carried out in physiologically relevant media. Samples of Form K and Form K′ were separately equilibrated in pure water, pH 2.0 buffer, and pH 6.8 buffer for fifteen minutes, and the solids were then separated from the solvents. The concentration of the compound in the filtrate (i.e., the solubility) was assessed in each case, and the solid residues were also monitored by powder X-ray diffraction. All six solid residues correspond to Form K, confirming that Form K′ rapidly incorporates water into its lattice when suspended in an aqueous environment even when the solubility is low. While the solubilities in pure water and at pH 6.8 were below the limit of quantitation of 0.0001 mg/mL, the solubilities at pH 2.0 could be measured. […] Thus, the bioavailabilities of the two forms are expected to be similar, and precise control of the water content (and, thereby, the solid form) is presumably not necessary from a scientific point of view. Given that the critical water activity is in the range aH2O=0.11-0.17, the hydrated Form K is likely to be the more easily stabilized of the two forms under ambient laboratory conditions.

[6] = Storage at controlled relative humidities (Form K / Form K′)
Excerpt: It was noticed that after Form K was dried, the XRPD peaks of Form K shifted to a higher value and the resulting XRPD pattern is called Form K′. To further understand the relationships between the two forms, free base Form K and Form K′ were placed on XRPD sample holders and stored in a closed Jars with saturated salt solutions for RH controls at ambient temperature, respectively. […] The XRPD diffractograms of the samples after 2-day storage are presented in FIG. 132 and FIG. 133, respectively. […] Since the peaks of Form K shifted to higher 2-theta value as Form K loses water molecules to Form K′, Form K and Form K′ are on a continuum.

[7] = Critical water activity of hydrochloride Form L and Form N; details: for form after slurry (XRPD): water/acetone
Procedure: Determination of critical water activity for Form L and Form N: 50 mg of Form L was suspended in 0.5-1 ml of water/acetone solution with specific water activity. The solutions were stirred at RT or 60′° C. Form conversion was monitored by XRPD over 2 weeks.

[8] = relative humidity from about 5% to about 95%

Structure (SMILES): Cl.N#Cc1ccc(N2CCN(Cc3ccc(COc4cccc5c4CN([C@H]4CCC(=O)NC4=O)C5=O)cc3)CC2)c(F)c1 [HC1 Salt]
Solubility ([1]; FaSSIF): 1 µg/mL | Solubility ([1]; FeSSiF): 94 µg/mL | Solubility ([1]; SGF with pepsin): 295 µg/mL | Solubility ([1]; pH 1 buffer HC1/NaC1): 71 µg/mL | Solubility ([1]; pH 3 buffer (phosphate)): 149 µg/mL | Solubility ([1]; pH 4 buffer (acetate)): 124 µg/mL | Solubility ([1]; pH 5 buffer (acetate)): 17 µg/mL | Final pH ([1]; solubility sample in FaSSIF): 5.96 | Final pH ([1]; solubility sample in FeSSiF): 4.99 | Final pH ([1]; solubility sample in SGF with pepsin): 1.28 | Final pH ([1]; solubility sample in pH 1 buffer HC1/NaC1): 1.05 | Final pH ([1]; solubility sample in pH 3 buffer (phosphate)): 3.05 | Final pH ([1]; solubility sample in pH 4 buffer (acetate)): 4.00 | Final pH ([1]; solubility sample in pH 5 buffer (acetate)): 4.83

Structure (SMILES): N#Cc1ccc(N2CCN(Cc3ccc(COc4cccc5c4CN([C@H]4CCC(=O)NC4=O)C5=O)cc3)CC2)c(F)c1.O=S(=O)(O)c1ccccc1 [Form B of a besylate salt of Compound 1]
physical stability (XRPD) ([2]; 40° C., 40° C./75% RH, 60° C., 60° C./75% RH, and under light for 14 days): physically stable | chiral purity (area % of S-isomer) ([2]; accelerated stability conditions, 14 days): above 99% | Chemical purity (HPLC) on storage ([2]; accelerated stability conditions, 14 days, peak grows with temperature and humidity): showed degradation peak | hygroscopicity [3]: slightly hygroscopic (slightly hygroscopic (mass increase of <2% but ≥0.2%)) | solid form after DVS cycle [3]: remains as Form B | DVS mass increase [3, 8]: about 1.75%

Structure (SMILES): N#Cc1ccc(N2CCN(Cc3ccc(COc4cccc5c4CN([C@H]4CCC(=O)NC4=O)C5=O)cc3)CC2)c(F)c1 [Form C of a free base of Compound 1]
physical and chemical stability ([2]; accelerated stability conditions): physically and chemically stable | competitive slurry of Form C and Form K [4]: gradual conversion of Form C to Form K | hygroscopicity ([3]; listed as Form C): hygroscopic (hygroscopic (mass increase of <15% but ≥2%)) | DVS mass increase ([3]; relative humidity from about 5% to about 95%, listed as Form C): about 8.3% | Solubility ([1]; FaSSIF): 1 µg/mL (≈ 1.76 µM) | Solubility ([1]; FeSSiF, listed as Form C): 31 µg/mL (≈ 54.6 µM) | Solubility ([1]; SGF with pepsin, listed as Form C): 427 µg/mL (≈ 752 µM) | Solubility ([1]; Water): <LOQ | Solubility ([1]; pH 1 buffer HC1/NaC1, listed as Form C): 108 µg/mL (≈ 190 µM) | Solubility ([1]; pH 3 buffer (phosphate), listed as Form C): 277 µg/mL (≈ 488 µM) | Solubility ([1]; pH 4 buffer (acetate), listed as Form C): 65 µg/mL (≈ 115 µM) | Solubility ([1]; pH 5 buffer (acetate), listed as Form C): 3 µg/mL (≈ 5.29 µM) | Final pH ([1]; solubility sample in FaSSIF, listed as Form C): 6.44 | Final pH ([1]; solubility sample in FeSSiF, listed as Form C): 5.05 | Final pH ([1]; solubility sample in SGF with pepsin, listed as Form C): 1.29 | Final pH ([1]; solubility sample in Water, listed as Form C): 6.86 | Final pH ([1]; solubility sample in pH 1 buffer HC1/NaC1, listed as Form C): 1.07 | Final pH ([1]; solubility sample in pH 3 buffer (phosphate), listed as Form C): 3.31 | Final pH ([1]; solubility sample in pH 4 buffer (acetate), listed as Form C): 4.14 | Final pH ([1]; solubility sample in pH 5 buffer (acetate), listed as Form C): 5.11

Structure (SMILES): N#Cc1ccc(N2CCN(Cc3ccc(COc4cccc5c4CN([C@H]4CCC(=O)NC4=O)C5=O)cc3)CC2)c(F)c1 [Form K′ of a free base of Compound 1]
solubility at pH 2.0 ([5]; pH 2.0 buffer, fifteen minutes): 0.93 mg/mL | solid residue after solubility measurement (powder X-ray diffraction) ([5]; pure water, pH 2.0 buffer and pH 6.8 buffer, fifteen minutes): Form K | form conversion on storage (XRPD) ([6]; 22% RH or above, ambient temperature): converts to K | PXRD result after storage ([6]; stored at 17% r.h. and r.t. for 2.5 d): Form K

Structure (SMILES): Cl.N#Cc1ccc(N2CCN(Cc3ccc(COc4cccc5c4CN([C@H]4CCC(=O)NC4=O)C5=O)cc3)CC2)c(F)c1
critical water activity (Form L to Form N) ([7]; 60° C.): 0.4-0.5 | critical water activity (Form L to Form N) ([7]; RT): 0.2-0.4 | form after slurry (XRPD) ([7]; Aw 0.1, RT): Form L | form after slurry (XRPD) ([7]; Aw 0.2, 60° C.): Form L | form after slurry (XRPD) ([7]; Aw 0.2, RT): Form L | form after slurry (XRPD) ([7]; Aw 0.3, 60° C.): Form L | form after slurry (XRPD) ([7]; Aw 0.3, RT): Form AA | form after slurry (XRPD) ([7]; Aw 0.4, 60° C.): Form L | form after slurry (XRPD) ([7]; Aw 0.4, RT): Form N | form after slurry (XRPD) ([7]; Aw 0.5, 60° C.): Form N | form after slurry (XRPD) ([7]; Aw 0.5, RT): Form N | hygroscopicity [3]: slightly hygroscopic (slightly hygroscopic (mass increase of <2% but ≥0.2%)) | solid form after DVS cycle [3]: remains as Form L | DVS mass increase ([3]; relative humidity from about 0% to about 95%): about 0.6%

Structure (SMILES): N#Cc1ccc(N2CCN(Cc3ccc(COc4cccc5c4CN([C@H]4CCC(=O)NC4=O)C5=O)cc3)CC2)c(F)c1 [Form D of a free base of Compound 1]
hygroscopicity ([3]; listed as Form D): slightly hygroscopic (slightly hygroscopic (mass increase of <2% but ≥0.2%)) | solid form after DVS cycle ([3]; listed as Form D): a mixture of Form B and Form E | DVS mass increase ([3]; relative humidity from about 5% to about 95%, listed as Form D): about 3.0%

aqueous solubility for the free base component ([5]; water, sample changed (solid-form transformation or gel), value may not represent the initial form): 4.1 mg/mL and 7.2 mM | solid form after DVS cycle [3]: remains as Form A | DVS mass increase [3, 8]: about 11.7%
Structure (SMILES): Cl.N#Cc1ccc(N2CCN(Cc3ccc(COc4cccc5c4CN(C4CCC(=O)NC4=O)C5=O)cc3)CC2)c(F)c1 (centres unmarked)
hygroscopicity [3]: hygroscopic (hygroscopic (mass increase of <15% but ≥2%))
